# From PMC11212260, “Next-generation neuropeptide Y receptor small-molecule agonists inhibit mosquito-biting behavior” (Parasites & Vectors, 2024)
# pEC50: −log10 of the molar value. Values joined by “and” are separate entries in the source; they are usually repeats but may differ in a detail not shown here. Identical values can stand only once. Like-named read-outs stand apart in the source and are kept apart here. Where a SMILES comes first, the peptide text is derived from it.
# Assays:
# [1] = molecular target: Ae. aegypti NPYLR7 (Aedes aegypti, UniProt U5N1H5); assay: In vitro calcium (GCaMP6s) FLIPR assay in HEK293T cells transfected with NPYLR7; type: cell-based; conditions: for RFU: assay date 1/11/20 plate 1, duplicate wells; for activation at 100 µM: single replicate of the dose-response curve
# Protocol: The in vitro screening assay was adapted from, and carried out at HD Biosciences (HDB, Shanghai) as follows: HEK293T (Thermo Fisher Scientific) cells were grown in Dulbecco’s modified Eagle medium (DMEM) (high glucose, with glutamine), 10% fetal bovine serum, 1% penicillin–streptomycin (Pen/Strep), seeded in a 75 cm^2 flask, and incubated at 37 °C and 5% CO2. Cells were transiently transfected with 1 μg of each plasmid expressing GCaMP6s (Addgene […]) (Chen et al., 2013), mouse Gqα15 (Addgene #40753) (Offermanns and Simon, 1995) and Ae. aegypti NPYLR7 (Addgene #52392) (Duvall et al. 2019) using Lipofectamine 2000 (Invitrogen) in 4 ml of Opti-MEM (Invitrogen). This mixture was added to a plate after 20 min and incubated for 6–8 h. Cells were then trypsinized, resuspended in phenol-free media, and plated in a 384-well plate (Greiner Bio-One) at a density of 20,000 cells per 40 μl, and incubated overnight (37 °C, 5% CO2). Cells were imaged directly in phenol-free media. Plates were loaded into a Molecular Devices fluorescence imaging plate reader (FLIPR) with an excitation wavelength of 470–495 nm and an emitted wavelength of 515–575 nm. Plates were imaged every second for 5 min. After 30 s of baseline fluorescence recording, 10 μl of the test compound in reading buffer [Hank’s Balanced Salt Solution (Gibco) + 20 mM HEPES (Sigma-Aldrich)] was added. Concentrations tested ranged from 0 to 100 μM. Data were collected in raw fluorescence units (RFU).
# Each test plate included replicates of 10 μM FMRFa3 (H‐Ala‐Gly‐Gln‐Gly‐Phe‐Met‐Arg‐Phe‐NH2), an Ae. aegypti neuropeptide agonist of NPYLR7 used to calculate the hundred percent effect (HPE). The zero percent effect (ZPE) control was calculated as a response to buffer alone. The Z′ factor was calculated for each plate by Z^′=1-3σHPE+3σZPE/|μHPE-μZPE| . Plates with Z′ < 0.5 were excluded from analysis. Raw fluorescence units (RFU) were converted to percent effect relative to the average of the ZPE and HPE. Percent effect = (sample luminescence − average ZPE)/(average HPE − average ZPE)×100. […] Each replicate was plotted as percent effect versus log[concentration], and replicates with maximal responses between 20 and 250% were used for EC50 calculations. Relative EC50 was calculated using an [Agonist] versus response–variable slope four-parameter model where Y=Bottom+(X^Hillslope)∗(Top-Bottom)/(X^HillSlope+EC50^HillSlope) . For compounds with multiple replicates, the relative EC50 of each replicate was averaged.
# [2] = system: Aedes aegypti (Orlando strain) females; assay: Host-seeking screening assay (miniport olfactometer); type: in vivo; conditions: fed 1 μM in saline, tested 48 h post-meal; for Attraction (relative to saline): per-compound value of Fig. 3C; for Host-seeking relative to saline (test compound % host-seeking/average matched saline % host-seeking): individual replicates
# Protocol: Groups of 60–150 females were placed in bucket cages with a diameter of 21.6 cm and height of 16.5 cm (VWR) and fasted with access to water for 24 h prior to feeding. Meals were delivered to females via Glytube membrane feeders as described previously. Meals consisted of 1.5 ml sheep blood (HemoStat Laboratories), saline (400 mM NaHCO3 + dih2O), or saline and test compound. Lyophilized compounds were stored at room temperature until use. High-concentration stocks (30 mM in 100% dimethyl sulfoxide [DMSO]) (Sigma-Aldrich) were stored at −20 °C and diluted in saline immediately prior to feeding. Once prepared, meals and glycerol heating elements were warmed in a 42 °C water bath for 15 min to provide warmth to attract mosquitos to feed. ATP (1 mM final concentration) and test compounds (1 μM final concentration) were added prior to placing the meal on top of the mesh on the cage containing female mosquitos. Females were allowed 15–20 min to feed to repletion. Abdominal engorgement was scored by eye and confirmed by weighing females to ensure full feeding (Data S1). […] Females were returned to their original cage with a diH2O wick for 48 h prior to behavioral testing. The lethality of each compound was measured by counting the number of dead females in each cage 24 h post-meal.
# Miniport olfactometers were fabricated in-house as described previously. Information regarding design, construction, and use can be found at https://github.com/VosshallLab/Miniport-Construction. Miniport canisters consisted of a 6″ × 3″ × 3″ acrylic tube with a mesh screen to allow for air flow. Groups of 10–20 females were loaded into canisters 24 h post-meal. Females were left in canisters overnight to acclimate with two cotton balls soaked in diH20 to prevent desiccation. Behavior trials began 48 h post-meal. Canisters were randomly assigned to attraction traps 1–4 and given 5 min to acclimate. The stimulus end of the trap was connected to a flowmeter that supplied 5% CO2 at a rate of 30 ml/min. Thirty seconds of CO2 flow was supplied to activate females prior to opening the sliding door. Once opened, the sliding door gave females access to the attraction trap baited with a human-scented nylon stocking previously worn by the same experimenter for 8–10 h to collect body odor and stored in a plastic bag at −20 °C until use. After 5 min, the sliding door was closed and attraction was scored as mosquitoes in the attraction trap/total number of mosquitoes. For each experiment data were normalized to the matched average saline attraction from the same experiment (% attracted/average saline attraction). Any dead mosquitoes were excluded from the analysis. Non-fed females and blood-fed females served as environmental control groups while the saline-fed females served as the vehicle control each day. If non-fed or saline-fed females were less than 50% attracted or if blood-fed females were more than 20% attracted behavioral trials were halted and all data from that experimental day were discarded.
# [3] = Figure 1E Summary, third list (n = 39), read-out: Reported Metric (Summary list)
# [4] = Figure 1E, EC50 of the single assay date/plate, read-out: EC50
# [5] = Figure 1E, metric reported per compound, repeated on every replicate line, read-out: Reported Metric (EC50)
# [6] = relative EC50, percent effect relative to 10 μM FMRFa3, read-out: EC50
# [7] = Figure 1E summary value per compound, repeated on each replicate line, read-out: Reported Metric (EC50 summarised over assay dates)
# [8] = fit per assay date/plate (c2), repeated on the replicate lines of one date, read-out: EC50
# [9] = EC50 of the individual assay date/plate (assay date), read-out: EC50
# [10] = Figure 1E Summary, second list (n = 48), read-out: Reported Metric (Summary list)
# [11] = HEK-293T, 100 uM, normalised response
# [12] = sheet Figure 3C, unit inferred, read-out: EC50
# [13] = summary EC50 per compound (mean over assay dates), the unit is taken from the neighbouring EC50 (uM) column, read-out: Reported Metric
# Ae. aegypti NPYLR7, sequence (U5N1H5 entry or part of it): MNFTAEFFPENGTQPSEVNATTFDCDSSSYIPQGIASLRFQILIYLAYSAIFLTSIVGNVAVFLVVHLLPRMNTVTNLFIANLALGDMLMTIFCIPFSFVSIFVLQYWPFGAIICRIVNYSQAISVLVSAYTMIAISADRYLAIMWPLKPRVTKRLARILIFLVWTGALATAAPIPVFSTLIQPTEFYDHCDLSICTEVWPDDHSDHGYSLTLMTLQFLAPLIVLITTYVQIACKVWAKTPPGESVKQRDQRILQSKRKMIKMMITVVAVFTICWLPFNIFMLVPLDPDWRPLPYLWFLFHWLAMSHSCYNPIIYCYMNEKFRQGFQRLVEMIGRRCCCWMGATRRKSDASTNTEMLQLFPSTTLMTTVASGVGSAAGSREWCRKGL
smiles,measurement,setting,value
CSCC[C@H](NC(=O)[C@H](Cc1ccccc1)NC(=O)CNC(=O)[C@H](CCC(N)=O)NC(=O)CNC(=O)[C@H](C)N)C(=O)N[C@@H](CCCNC(=N)N)C(=O)N[C@@H](Cc1ccccc1)C(N)=O [FMRF3a] (H-AGQGFMRF-NH2),response at 0.0017(uM),"[1]; 0.0017 uM, single replicate, normalised response",2.545
same,response at 0.0051(uM),"[1]; 0.0051 uM, single replicate, normalised response",-0.01361
same,EC50,"[1]; EC50 (uM), EC50 of the individual assay date/plate (assay date)",2.4 µM and 3.76 µM and 1.51 µM and 8.78 µM and 4.23 µM and 2.6 µM and 8.21 µM and 1.15 µM and 4.22 µM and 4.26 µM
same,EC50,"[1]; Reported Metric, summary EC50 per compound (mean over assay dates), the unit is taken from the neighbouring EC50 (uM) column",4.11 µM
"CSCC[C@H](NC(=O)[C@H](Cc1ccccc1)NC(=O)CNC(=O)[C@H](CCC(N)=O)NC(=O)CNC(=O)[C@H](C)N)C(=O)N[C@@H](CCCNC(=N)N)C(=O)N[C@@H](Cc1ccccc1)C(N)=O [FMRFa3, H‐Ala‐Gly‐Gln‐Gly‐Phe‐Met‐Arg‐Phe‐NH2, reference compound] (H-AGQGFMRF-NH2)",RFU,"[1]; 0.00169350878084303uM, listed as FMFR3a",65 RFU and 68 RFU
same,RFU,"[1]; 0.00508052634252909uM, listed as FMFR3a",68 RFU and 63 RFU
same,RFU,"[1]; 0.0152415790275873uM, listed as FMFR3a",60 RFU and 54 RFU
same,RFU,"[1]; 0.0457247370827618uM, listed as FMFR3a",68 RFU and 57 RFU
same,RFU,"[1]; 0.137174211248285uM, listed as FMFR3a",60 RFU and 61 RFU
same,RFU,"[1]; 0.411522633744856uM, listed as FMFR3a",69 RFU and 63 RFU
same,RFU,"[1]; 1.23456790123457uM, listed as FMFR3a",164 RFU and 112 RFU
same,RFU,"[1]; 3.7037037037037uM, listed as FMFR3a",199 RFU and 204 RFU
same,RFU,"[1]; 11.1111111111111 uM, listed as FMFR3a",247 RFU and 275 RFU
same,RFU,"[1]; 33.333333 uM, listed as FMFR3a",320 RFU and 317 RFU
same,RFU,"[1]; 100 uM, listed as FMFR3a",354 RFU and 310 RFU
Cc1nc(NC(=N)N)nc2cc(OC(F)(F)F)ccc12 [TDI-012613],pEC50,[1]; [3],5.47
same,pEC50,[1]; [4],5.27 and 5.87
same,pEC50,[1]; [5],5.47
same,activation at 11.1111 µM,"[1]; HEK-293T, compound 11.1111 uM, single replicate well, read-out: response at 11.1111",43.1%
same,activation at 33.3333 µM,"[1]; HEK-293T, compound 33.3333 uM, single replicate well, read-out: response at 33.3333",69.7%
same,pEC50,[1]; [6],5.47
Cc1nc(NC(=N)N)nc2cc(OC(F)F)ccc12 [TDI-012615],Attraction (relative to saline),[2],0.94
same,RFU,"[1]; 0.00169350878084303uM, listed as TDI-012615-NX-1",74 RFU and 66 RFU
same,RFU,"[1]; 0.00508052634252909uM, listed as TDI-012615-NX-1",74 RFU and 63 RFU
same,RFU,"[1]; 0.0152415790275873uM, listed as TDI-012615-NX-1",71 RFU and 60 RFU
same,RFU,"[1]; 0.0457247370827618uM, listed as TDI-012615-NX-1",57 RFU and 73 RFU
same,RFU,"[1]; 0.137174211248285uM, listed as TDI-012615-NX-1",57 RFU and 91 RFU
same,RFU,"[1]; 0.411522633744856uM, listed as TDI-012615-NX-1",153 RFU and 157 RFU
same,RFU,"[1]; 1.23456790123457uM, listed as TDI-012615-NX-1",207 RFU and 271 RFU
same,RFU,"[1]; 3.7037037037037uM, listed as TDI-012615-NX-1",247 RFU and 267 RFU
same,RFU,"[1]; 11.1111111111111 uM, listed as TDI-012615-NX-1",339 RFU and 333 RFU
same,RFU,"[1]; 33.333333 uM, listed as TDI-012615-NX-1",353 RFU and 317 RFU
same,RFU,"[1]; 100 uM, listed as TDI-012615-NX-1",434 RFU and 405 RFU
same,pEC50,[1]; [3],5.79
same,pEC50,[1]; [4],5.88 and 5.71
same,pEC50,[1]; [5],5.79
same,pEC50,[1]; [6],5.79
COc1cc2c(C)nc(NC(=N)N)nc2cc1OCc1ccccc1 [TDI-012943],Attraction (relative to saline),[2],1.035
same,pEC50,[1]; [3],7.26
same,pEC50,[1]; [7],7.26
same,pEC50,[1]; [8],7.35 and 6.92
same,pEC50,[1]; [6],7.26
COc1ccc(COc2ccc3c(C)nc(NC(=N)N)nc3c2)cc1 [TDI-013000],Attraction (relative to saline),[2],0.925
same,pEC50,[1]; [3],7.56
same,pEC50,[1]; [7],7.56
same,pEC50,[1]; [8],7.09 and 7.55
same,pEC50,[1]; [6],7.56
same,EC50,"[1]; summary value per compound, matches the mean of the EC50 (uM) values of the assay dates, column head prints no unit, Figure 1 Panel E, read-out: Reported Metric",0.0277 µM
CCOc1cc2c(C)nc(NC(=N)N)nc2cc1OCc1ccccc1 [TDI-013758],Host-seeking relative to saline (test compound % host-seeking/average matched saline % host-seeking),[2]; listed as TDI-03758,1.17
same,Attraction (relative to saline),[2],0.78
same,pEC50,[1]; [9],5.07
same,pEC50,[1]; [10],5.07
same,activation at 100 µM,[1]; [11],80.6%
same,pEC50,[1]; [6],5.07
same,EC50,[1]; [12],8.53 µM
same,EC50,[1]; [13],8.53 µM
Cc1nc(NC(=N)N)nc2cc(OCC3CCCOC3)ccc12 (stereo not shown) [TDI-014167],Host-seeking relative to saline (test compound % host-seeking/average matched saline % host-seeking),[2]; listed as TDI-04167,0.97
same,Attraction (relative to saline),[2],0.975
same,pEC50,[1]; [9],5.13
same,pEC50,[1]; [10],5.13
same,activation at 100 µM,[1]; [11],66.1%
same,pEC50,[1]; [6],5.13
same,EC50,[1]; [12],7.37 µM
same,EC50,[1]; [13],7.37 µM
